Ten molecules from PubChem BioAssay AID1053199 (The Scripps Research Institute Molecular Screening Center, 2014) can be followed below.

SMILES strings stand for the structures. Activity calls are given as the source filed them.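 The calls were made as follows: active = inhibition at or above 50% when tested at 10 µM; inactive = inhibition below 50% at 10 µM.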

The target in one assay is Methionine--tRNA ligase, mitochondrial (Homo sapiens) (UniProt Q96GW9). The assay can be described thus: inhibitors of human mitochondrial methionyl-tRNA synthetase – biochemical, radioactivity, round 3, selectivity assay for T. brucei MetRS inhibitor project, late-stage follow-up (AID 1053199). To be noted: recombinant human mitochondrial MetRS, [3H]Met aminoacylation; at 10 µM; stronger effect = higher value.
Sequence of Methionine--tRNA ligase, mitochondrial (Homo sapiens) (Q96GW9 whole entry, looked up): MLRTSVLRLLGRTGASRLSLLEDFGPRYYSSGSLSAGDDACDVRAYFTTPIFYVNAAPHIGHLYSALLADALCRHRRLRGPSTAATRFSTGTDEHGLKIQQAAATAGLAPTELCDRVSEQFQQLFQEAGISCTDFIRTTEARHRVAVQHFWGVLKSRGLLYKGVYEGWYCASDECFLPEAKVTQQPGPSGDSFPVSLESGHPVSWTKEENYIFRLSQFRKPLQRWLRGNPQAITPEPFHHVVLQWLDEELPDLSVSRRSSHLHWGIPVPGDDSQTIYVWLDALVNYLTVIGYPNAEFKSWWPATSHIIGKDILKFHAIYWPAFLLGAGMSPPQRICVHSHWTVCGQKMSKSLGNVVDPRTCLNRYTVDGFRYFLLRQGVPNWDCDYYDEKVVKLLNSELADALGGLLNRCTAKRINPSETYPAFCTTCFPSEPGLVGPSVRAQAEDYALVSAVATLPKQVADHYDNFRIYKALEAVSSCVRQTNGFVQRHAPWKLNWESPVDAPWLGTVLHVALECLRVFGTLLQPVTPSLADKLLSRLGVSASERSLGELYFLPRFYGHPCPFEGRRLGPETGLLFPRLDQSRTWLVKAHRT
The term inhibition denotes the drop in the measured response relative to a control, in per cent. Take `O=C(Cn1cc(C(=O)C(=O)NCc2ccccc2)c2ccccc21)Nc1cc(Oc2ccccc2)cc(C(F)(F)F)c1`: the inhibition was -8.53% (inactive).

`CCN(CC)C(=O)C(=O)c1cn(CCNc2cccc(C(F)(F)F)c2)c2ccccc12`: the inhibition is 0.1% (inactive).

Consider `Nc1c(Cl)ncnc1Nc1ccc(C(=O)O)cc1`, for which the inhibition is 6.59% (inactive).

On to `O=C(Cc1ccc(Nc2nc3ccc(Br)cc3[nH]2)cc1)NCCc1cccs1`, for which the inhibition was 0.91% (inactive).

`CCN(CC)C(=O)C(=O)c1cn(CC(=O)Nc2cc(Oc3ccc(OC)cc3)cc(C(F)(F)F)c2)c2ccccc12`: the inhibition is -1.74% (inactive).

Take `CCN(CC)C(=O)C(=O)c1cn(CC(=O)Nc2cc(Oc3ccc(F)cc3)cc(C(F)(F)F)c2)c2ccccc12`: the inhibition is 7.56% (inactive).

On to `CCN(CC)C(=O)C(=O)c1cn(CC(=O)Nc2cc(Oc3ccccc3F)cc(C(F)(F)F)c2)c2ccccc12`, for which the inhibition was -4.45% (inactive).

For `CCN(CC)C(=O)C(=O)c1cn(CCNc2cc(Oc3ccccc3)cc(C(F)(F)F)c2)c2ccccc12`, the inhibition was 2.68% (inactive).

For the molecule `CCN(CC)C(=O)C(=O)c1cn(CC(=O)Nc2cc(Oc3ccccc3OC)cc(C(F)(F)F)c2)c2ccccc12`, the inhibition was 6.34% (inactive).

Turning to `CCN(CC)C(=O)Cc1cn(CC(=O)Nc2cccc(C(F)(F)F)c2)c2ccccc12`, the inhibition is -11.2% (inactive).

The assay is the same for the next values; noted with them: recombinant human mitochondrial MetRS, [3H]Met aminoacylation; inhibition; at 1 µM; stronger effect = higher value.
For the molecule `O=C(Cn1cc(C(=O)C(=O)NCc2ccccc2)c2ccccc21)Nc1cc(Oc2ccccc2)cc(C(F)(F)F)c1`, the inhibition is -1.57%.

`CCN(CC)C(=O)C(=O)c1cn(CCNc2cccc(C(F)(F)F)c2)c2ccccc12`: the inhibition was -5.12%.

With `Nc1c(Cl)ncnc1Nc1ccc(C(=O)O)cc1`, the inhibition amounted to 2.59%.

For `O=C(Cc1ccc(Nc2nc3ccc(Br)cc3[nH]2)cc1)NCCc1cccs1`, the inhibition stood at 5.12%.

Regarding `CCN(CC)C(=O)C(=O)c1cn(CC(=O)Nc2cc(Oc3ccc(OC)cc3)cc(C(F)(F)F)c2)c2ccccc12`, the inhibition was -4.97%.

Consider `CCN(CC)C(=O)C(=O)c1cn(CC(=O)Nc2cc(Oc3ccc(F)cc3)cc(C(F)(F)F)c2)c2ccccc12`, for which the inhibition is -2.44%.

On to `CCN(CC)C(=O)C(=O)c1cn(CC(=O)Nc2cc(Oc3ccccc3F)cc(C(F)(F)F)c2)c2ccccc12`, for which the inhibition is -5.27%.

As to `CCN(CC)C(=O)C(=O)c1cn(CCNc2cc(Oc3ccccc3)cc(C(F)(F)F)c2)c2ccccc12`, the inhibition is -2.31%.

In the case of `CCN(CC)C(=O)C(=O)c1cn(CC(=O)Nc2cc(Oc3ccccc3OC)cc(C(F)(F)F)c2)c2ccccc12`, the inhibition was -6.59%.

Take `CCN(CC)C(=O)Cc1cn(CC(=O)Nc2cccc(C(F)(F)F)c2)c2ccccc12`: the inhibition is -8.45%.
